Reference: patent US10550111B2, “Pyrimidine urea compound containing isoxazolines and use thereof” (SHENYANG SINOCHEM AGROCHEMICALS R&D CO., LTD, priority 2014, dated 2020)

Legend:
Assay type in all cases: in vivo
[1] = test system: Abutilon theophrasti Medic.; assay: Bioassay of herbicidal activity in greenhouse (further screening)
Description: (§1) Determination of herbicidal activity of compounds of the present invention against weeds was carried out by the following procedures:
(§2) Seeds of monocotyledonous and dicotyledonous weeds were sown in nutrition soil in paper pot (7 cm diameter), covered with soil in 1 cm and grown in the greenhouse under good growth conditions (temperature, atmospheric humidity, water supply). The compounds of the present invention as emulsifiable concentrate, were applied in pre-emergence and post-emergence treatment by track sprayer (Engineer Research Ltd., pressure 1.95 kg/cm^2, volume 500 L/hm^2, track speed 1.48 km/h). Pre-emergence treatment was conducted after seeding 24 hours and post-emergence treatment was done when the respective weeds reached predetermined leaf stage (grass weed 2- to 3-leaf stage, broad-leaf weed 2- to 4-leaf stage), the state of growth of the respective weeds were visually observed to determine the growth inhibition rate (%) in accordance with the following evaluation standard.
(§3) Growth inhibition rate (%): 0=no discernible action: 100=all weeds dead or not emerged.

[2] = test system: Echinochloa crus-galli (L.) Beauv.; assay: as above
Description: as §1, §2, §3

[3] = test system: Setaria glauca (L.) Beauv.; assay: as above
Description: as §1, §2, §3

[4] = test system: Zinnia elegans Jacq.; assay: as above
Description: as §1, §2, §3

[5] = test system: broad-leaf weeds and grass weeds; assay: General screening of herbicidal activity in greenhouse; details: 1000 g a.i./hm^2;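 also: 0 means no visible effect and 100 means all weeds dead or not emerged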
Description: as §1, §2, §3

| Structure (SMILES) | pre-emergence and post-emergence herbicidal activity against broad-leaf weeds and grass weeds [5] | Growth inhibition rate, Post-emergence treatment, Abutilon theophrasti Medic. ([1]; dose 37.5 g a.i./hm^2) [%] | Growth inhibition rate, Post-emergence treatment, Abutilon theophrasti Medic. ([1]; dose 150 g a.i./hm^2) [%] | Growth inhibition rate, Post-emergence treatment, Abutilon theophrasti Medic. ([1]; dose 600 g a.i./hm^2) [%] | Growth inhibition rate, Pre-emergence treatment, Abutilon theophrasti Medic. ([1]; dose 37.5 g a.i./hm^2) [%] | Growth inhibition rate, Pre-emergence treatment, Abutilon theophrasti Medic. ([1]; dose 150 g a.i./hm^2) [%] | Growth inhibition rate, Pre-emergence treatment, Abutilon theophrasti Medic. ([1]; dose 600 g a.i./hm^2) [%] | Growth inhibition rate, Post-emergence treatment, Echinochloa crus-galli (L.) Beauv. ([2]; dose 37.5 g a.i./hm^2) [%] | Growth inhibition rate, Post-emergence treatment, Echinochloa crus-galli (L.) Beauv. ([2]; dose 150 g a.i./hm^2) [%] | Growth inhibition rate, Post-emergence treatment, Echinochloa crus-galli (L.) Beauv. ([2]; dose 600 g a.i./hm^2) [%] | Growth inhibition rate, Pre-emergence treatment, Echinochloa crus-galli (L.) Beauv. ([2]; dose 37.5 g a.i./hm^2) [%] | Growth inhibition rate, Pre-emergence treatment, Echinochloa crus-galli (L.) Beauv. ([2]; dose 150 g a.i./hm^2) [%] | Growth inhibition rate, Pre-emergence treatment, Echinochloa crus-galli (L.) Beauv. ([2]; dose 600 g a.i./hm^2) [%] | Growth inhibition rate, Post-emergence treatment, Setaria glauca (L.) Beauv. ([3]; dose 37.5 g a.i./hm^2) [%] | Growth inhibition rate, Post-emergence treatment, Setaria glauca (L.) Beauv. ([3]; dose 150 g a.i./hm^2) [%] | Growth inhibition rate, Post-emergence treatment, Setaria glauca (L.) Beauv. ([3]; dose 600 g a.i./hm^2) [%] | Growth inhibition rate, Pre-emergence treatment, Setaria glauca (L.) Beauv. ([3]; dose 37.5 g a.i./hm^2) [%] | Growth inhibition rate, Pre-emergence treatment, Setaria glauca (L.) Beauv. ([3]; dose 150 g a.i./hm^2) [%] | Growth inhibition rate, Pre-emergence treatment, Setaria glauca (L.) Beauv. ([3]; dose 600 g a.i./hm^2) [%] | Growth inhibition rate, Post-emergence treatment, Zinnia elegans Jacq. ([4]; dose 37.5 g a.i./hm^2) [%] | also measured |
| --- | --- | --- | --- | --- | --- | --- | --- | --- | --- | --- | --- | --- | --- | --- | --- | --- | --- | --- | --- | --- | --- |
| Cn1c(C(F)(F)F)cc(=O)n(-c2cc(C3=NOC(C)(C(=O)OCC(F)(F)F)C3)c(Cl)cc2F)c1=O (stereo not drawn) [Compound 396] | good |  |  |  |  |  |  |  |  |  |  |  |  |  |  |  |  |  |  |  | Growth inhibition rate, Post-emergence treatment, Abutilon theophrasti Medic. ([1]; dose 7.5 g a.i./hm^2): 98%; Growth inhibition rate, Post-emergence treatment, Abutilon theophrasti Medic. ([1]; dose 15 g a.i./hm^2): 100%; Growth inhibition rate, Post-emergence treatment, Abutilon theophrasti Medic. ([1]; dose 30.0 g a.i./hm^2): 100%; Growth inhibition rate, Post-emergence treatment, Abutilon theophrasti Medic. ([1]; dose 60.0 g a.i./hm^2): 100%; Growth inhibition rate, Post-emergence treatment, Abutilon theophrasti Medic. ([1]; dose 120.0 g a.i./hm^2): 100%; Growth inhibition rate, Post-emergence treatment, Echinochloa crus-galli (L.) Beauv. ([2]; dose 7.5 g a.i./hm^2): 20%; Growth inhibition rate, Post-emergence treatment, Echinochloa crus-galli (L.) Beauv. ([2]; dose 15 g a.i./hm^2): 55%; Growth inhibition rate, Post-emergence treatment, Echinochloa crus-galli (L.) Beauv. ([2]; dose 30.0 g a.i./hm^2): 95%; Growth inhibition rate, Post-emergence treatment, Echinochloa crus-galli (L.) Beauv. ([2]; dose 60.0 g a.i./hm^2): 100%; Growth inhibition rate, Post-emergence treatment, Echinochloa crus-galli (L.) Beauv. ([2]; dose 120.0 g a.i./hm^2): 100%; Growth inhibition rate, Post-emergence treatment, Setaria glauca (L.) Beauv. ([3]; dose 7.5 g a.i./hm^2): 25%; Growth inhibition rate, Post-emergence treatment, Setaria glauca (L.) Beauv. ([3]; dose 15 g a.i./hm^2): 55%; Growth inhibition rate, Post-emergence treatment, Setaria glauca (L.) Beauv. ([3]; dose 30.0 g a.i./hm^2): 85%; Growth inhibition rate, Post-emergence treatment, Setaria glauca (L.) Beauv. ([3]; dose 60.0 g a.i./hm^2): 98%; Growth inhibition rate, Post-emergence treatment, Setaria glauca (L.) Beauv. ([3]; dose 120.0 g a.i./hm^2): 100%; Growth inhibition rate, Post-emergence treatment, Zinnia elegans Jacq. ([4]; dose 7.5 g a.i./hm^2): 30%; Growth inhibition rate, Post-emergence treatment, Zinnia elegans Jacq. ([4]; dose 15 g a.i./hm^2): 60%; Growth inhibition rate, Post-emergence treatment, Zinnia elegans Jacq. ([4]; dose 30.0 g a.i./hm^2): 75%; Growth inhibition rate, Post-emergence treatment, Zinnia elegans Jacq. ([4]; dose 60.0 g a.i./hm^2): 100%; Growth inhibition rate, Post-emergence treatment, Zinnia elegans Jacq. ([4]; dose 120.0 g a.i./hm^2): 100% |
| COC(=O)C1(C)CC(c2cc(-n3c(=O)cc(C(F)(F)F)n(C)c3=O)c(F)cc2Cl)=NO1 (stereo not drawn) [Compound 5] | good |  |  |  |  |  |  |  |  |  |  |  |  |  |  |  |  |  |  |  | Growth inhibition rate, Post-emergence treatment, Abutilon theophrasti Medic. ([1]; dose 7.5 g a.i./hm^2): 100%; Growth inhibition rate, Post-emergence treatment, Abutilon theophrasti Medic. ([1]; dose 15 g a.i./hm^2): 100%; Growth inhibition rate, Post-emergence treatment, Abutilon theophrasti Medic. ([1]; dose 30.0 g a.i./hm^2): 100%; Growth inhibition rate, Post-emergence treatment, Abutilon theophrasti Medic. ([1]; dose 60.0 g a.i./hm^2): 100%; Growth inhibition rate, Post-emergence treatment, Abutilon theophrasti Medic. ([1]; dose 120.0 g a.i./hm^2): 100%; Growth inhibition rate, Post-emergence treatment, Echinochloa crus-galli (L.) Beauv. ([2]; dose 7.5 g a.i./hm^2): 45%; Growth inhibition rate, Post-emergence treatment, Echinochloa crus-galli (L.) Beauv. ([2]; dose 15 g a.i./hm^2): 95%; Growth inhibition rate, Post-emergence treatment, Echinochloa crus-galli (L.) Beauv. ([2]; dose 30.0 g a.i./hm^2): 100%; Growth inhibition rate, Post-emergence treatment, Echinochloa crus-galli (L.) Beauv. ([2]; dose 60.0 g a.i./hm^2): 100%; Growth inhibition rate, Post-emergence treatment, Echinochloa crus-galli (L.) Beauv. ([2]; dose 120.0 g a.i./hm^2): 100%; Growth inhibition rate, Post-emergence treatment, Setaria glauca (L.) Beauv. ([3]; dose 7.5 g a.i./hm^2): 60%; Growth inhibition rate, Post-emergence treatment, Setaria glauca (L.) Beauv. ([3]; dose 15 g a.i./hm^2): 65%; Growth inhibition rate, Post-emergence treatment, Setaria glauca (L.) Beauv. ([3]; dose 30.0 g a.i./hm^2): 100%; Growth inhibition rate, Post-emergence treatment, Setaria glauca (L.) Beauv. ([3]; dose 60.0 g a.i./hm^2): 100%; Growth inhibition rate, Post-emergence treatment, Setaria glauca (L.) Beauv. ([3]; dose 120.0 g a.i./hm^2): 100%; Growth inhibition rate, Post-emergence treatment, Zinnia elegans Jacq. ([4]; dose 7.5 g a.i./hm^2): 40%; Growth inhibition rate, Post-emergence treatment, Zinnia elegans Jacq. ([4]; dose 15 g a.i./hm^2): 45%; Growth inhibition rate, Post-emergence treatment, Zinnia elegans Jacq. ([4]; dose 30.0 g a.i./hm^2): 98%; Growth inhibition rate, Post-emergence treatment, Zinnia elegans Jacq. ([4]; dose 60.0 g a.i./hm^2): 100%; Growth inhibition rate, Post-emergence treatment, Zinnia elegans Jacq. ([4]; dose 120.0 g a.i./hm^2): 100% |
| C#CCOC(=O)C1(C)CC(c2cc(-n3c(=O)cc(C(F)(F)F)n(C)c3=O)ccc2Cl)=NO1 (stereo not drawn) [Compound 290] | good | 85 | 98 | 100 | 10 | 35 | 60 | 25 | 65 | 70 | 0 | 0 | 20 | 40 | 75 | 85 | 0 | 10 | 25 | 75 | Growth inhibition rate, Post-emergence treatment, Zinnia elegans Jacq. ([4]; dose 150 g a.i./hm^2): 100%; Growth inhibition rate, Post-emergence treatment, Zinnia elegans Jacq. ([4]; dose 600 g a.i./hm^2): 100%; Growth inhibition rate, Pre-emergence treatment, Zinnia elegans Jacq. ([4]; dose 37.5 g a.i./hm^2): 0%; Growth inhibition rate, Pre-emergence treatment, Zinnia elegans Jacq. ([4]; dose 150 g a.i./hm^2): 0%; Growth inhibition rate, Pre-emergence treatment, Zinnia elegans Jacq. ([4]; dose 600 g a.i./hm^2): 20% |
| Cn1c(C(F)(F)F)cc(=O)n(-c2cc(C3=NOC(C)(COC(=O)CCc4ccccc4)C3)c(Cl)cc2F)c1=O (stereo not drawn) [Compound 55] | good | 100 | 100 | 100 | 5 | 20 | 45 | 20 | 35 | 45 | 0 | 20 | 40 | 30 | 75 | 90 | 0 | 5 | 80 | 100 | Growth inhibition rate, Post-emergence treatment, Zinnia elegans Jacq. ([4]; dose 150 g a.i./hm^2): 100%; Growth inhibition rate, Post-emergence treatment, Zinnia elegans Jacq. ([4]; dose 600 g a.i./hm^2): 100%; Growth inhibition rate, Pre-emergence treatment, Zinnia elegans Jacq. ([4]; dose 37.5 g a.i./hm^2): 0%; Growth inhibition rate, Pre-emergence treatment, Zinnia elegans Jacq. ([4]; dose 150 g a.i./hm^2): 5%; Growth inhibition rate, Pre-emergence treatment, Zinnia elegans Jacq. ([4]; dose 600 g a.i./hm^2): 80% |
| CCCS(=O)(=O)OCC1(C)CC(c2cc(-n3c(=O)cc(C(F)(F)F)n(C)c3=O)c(F)cc2Cl)=NO1 (stereo not drawn) [Compound 90] | good | 100 | 100 | 100 | 0 | 10 | 30 | 15 | 35 | 40 | 0 | 10 | 25 | 25 | 60 | 80 | 5 | 20 | 50 | 98 | Growth inhibition rate, Post-emergence treatment, Zinnia elegans Jacq. ([4]; dose 150 g a.i./hm^2): 100%; Growth inhibition rate, Post-emergence treatment, Zinnia elegans Jacq. ([4]; dose 600 g a.i./hm^2): 100%; Growth inhibition rate, Pre-emergence treatment, Zinnia elegans Jacq. ([4]; dose 37.5 g a.i./hm^2): 5%; Growth inhibition rate, Pre-emergence treatment, Zinnia elegans Jacq. ([4]; dose 150 g a.i./hm^2): 30%; Growth inhibition rate, Pre-emergence treatment, Zinnia elegans Jacq. ([4]; dose 600 g a.i./hm^2): 80% |
